Assay results reported in US5360794A, “Disubstituted and deoxy disubstituted derivatives of α-D-mannofuranosides and β-L-gulofuranosides having anti-inflammatory and anti-proliferative activity” (Medicarb Inc., priority 1992, dated 1994).

What was measured:
[1] = system: T-lymphocytes (BALB/cBYJ responder spleen cells with mitomycin C treated C57BL/6J stimulator spleen cells); assay: Mixed lymphocyte response (MLR); assay type: cell-based, mouse; conditions: estimated IC50, 5 days at 37° C., MTT, 1, 10, 30, 100, and 300 μM
From the text: i Mixed lymphocyte response (MLR).
(§1) The MLR assay measures the effects of a study compound on the activation and antigen presentation of T-lymphocytes, therefore determining immunomodulatory properties. The mouse spleen cell mitogen-induced blastogenesis and the BUD-8 human fibroblast proliferation assays measure the effects of the compounds of the present invention on cellular proliferation of cells involved in the pathogenesis of autoimmune diseases. These two assays are appropriate as screens to ascertain anti-inflammatory and/or autoimmune beneficial activity and are art accepted for such purposes.
The MLR is a classical assay used to measure T cell function by studying the proliferation response of T cells which are activated in vitro by genetically disparate stimulator cells. This is accomplished by co-culturing spleen cells from two different strains of mice. Splenic T cell proliferation occurs as a result of cellular activation signals generated by the ongoing cellular interactions.
In performing MLR assays, BALB/cBYJ mice were euthanized by cervical dislocation and their spleens removed. Single cell suspensions were prepared in culture medium (RPMI-1640 with hepes supplemented with 10% calf serum, 2 mM glutamine, 500 units penicillin/streptomycin, and 4×10^-5 M 2-mercaptoethanol) using a Teflon pestle. The cells were centrifuged at 1500 RPM and the pellets resuspended in ACT (0.15M Tris, 0.14M ammonium chloride, pH 7.2) in order to lyse the red blood cells. After a 5 minute incubation at 37° C. in a waterbath, the cells were washed and resuspended in culture medium. The splenic lymphocytes were counted. C57BL/6J spleen cells, which were used as stimulator cells, were prepared in the same way. The stimulator cells were treated with 50 μg/ml of mitomycin C for 20 minutes at 37° C., then washed five times in culture medium. The proliferative response were measured by culturing 5×10^5 responder spleen cells with […] in 96-well microtiter plates in the presence or absence of test article or vehicle (DMSO). Syngeneic control cultures using mitomycin C treated normal BALB/c spleen cells as the stimulator cells were also run. All cultures were run in triplicate.
Solutions of compounds of the present invention in DMSO were prepared at a stock concentration of 300 mM. Solutions were made in a culture medium to a concentration of 1, 10, 30, 100, and 300 μM. The vehicle DMSO was used as a negative control.
After incubation for 5 days at 37° C. with 5% carbon dioxide, the amount of cell proliferation was measured by adding 20 μl of MTT (10 mg/ml in PBS) (3-[4,5-dimethylthiazol-2-yl]-2,5-diphenyl-tetrazolium bromide) to each well. Plates were incubated for 4 hours at 37° C., after which 180 μl of supernatant was removed and 180 μl of 10% SDS in PBS was added. After an overnight incubation, the optical density (OD) of each well was read on a Molecular Devices microplate reader at 570-650 nm.
The results were determined by calculating the difference between the means of the allogeneic cultures and the means of the syngeneic cultures for each test compound concentration. Differences of the test article groups were compared to the difference of the control group. The percent change from the control was determined and an IC50 estimated. The criteria used to establish activity levels were:
Sixteen (16) novel compounds were assayed for their ability to modulate a Mixed Lymphocyte Response in vitro. The test compounds were added to MLR cultures to give final concentrations of 1, 10, 30, 100, and 300 μM. The responses observed in the test article treated wells were compared to the control wells. […] Based on the estimated IC50, all the test compounds were strong inhibitors of the MLR.

[2] = system: mouse spleen cells (T-lymphocyte response to Con-A); assay: Concanavalin A assay (mouse spleen cell mitogen induced blastogenesis); assay type: cell-based; conditions: estimated IC50, Con-A 1.25 μg/ml, 3 days, MTT
From the text: iii Concanavalin A assay (the mouse spleen cell mitogen induced blastogenesis).
as §1
It is known that the induction and maintenance of most inflammatory diseases are typically due to the unrestricted activity of T-lymphocytes. Therefore, it is advantageous to identify compounds which are modulators of T-lymphocyte activity for eventual use in the regulation of inflammatory diseases, including acquired immune deficiency syndrome, psoriasis, systemic lupus, erythromatosus, and rheumatoid arthritis.
A simple method is used to screen compounds for their ability to modulate T-lymphocyte activity which comprises assessing the capacity of the compounds to alter the activation of murine spleen cells in response to T-lymphocyte mitogen activators, such as Conconavalin-A (Con-A). The method used to measure the effects of the compounds of the present invention on the blastogenic response of spleen cells to the T-lymphocyte mitogen (Con-A) is as follows:
The response of a mouse spleen cells to the T cell mitogen Con-A is a classical assay. In this assay, mice were euthanized by cervical dislocation and their spleens removed surgically. A single cell suspension of the spleens was prepared in culture medium (RPMI-1640 with hepes, supplemented with 10% calf serum, 2 mM glutamine, 500 units penicillin/streptomycin, and 4×10^-5 M 2-mercaptoethanol) using a Teflon pestle. The cells were centrifuged at 1500 RPM and the pellets resuspended in ACT (0.15M Tris, 0.14M Ammonium chloride, pH 7.2) in orde to lyse the red blood cells. After a five minutes incubation in a 37° C. waterbath, the cells were washed and resuspended in culture medium. The splenic lymphocytes were counted using an electronic Coulter Counter and diluted to 5.0×10^6 cells/ml.
The test articles were diluted in culture medium to the appropriate concentrations. 100 μl aliquots were distributed to triplicate wells in a 96-well microtiter plate. 50 μl of lymphocytes (2.5×10^5 cells) were added to each well. Control wells with vehicle and wells with media were also run. Plates were incubated for one hour at 37° C. 50 μl of Con-A ([…]) were then added to the wells to result in a final concentration of 1.25 μg/ml. After incubation at 37° C. with 5% carbon dioxide for 3 days, proliferation was measured by adding 20 μl of MTT (10 mg/mlin PBS) [3-(4,5-dimethyl-thiazol-2-yl)-2,5-diphenyl tetrazolium bromide] to each well. Plates were incubated for 4 hours at 37° C., after which 180 μl of 10% SDS in PBS were added. After an overnight incubation, the optical density (OD) of each well was read using a Molecular Devices microplate reader at 570-650 nm.
Duplicate cultures without Con-A were also set up. After 3 days of incubation, supernatants were assayed for lactate dehydrogenase activity to determine the viability of the cells, which is an indication of the toxicity of the test article on the splenic lymphocytes. 0.1 ml of supernatant was mixed with 0.1 ml of the LDH substrate mixture which contains 5.4×10^-2 M L(+) lactate, 6.6×10^-4 M 2-p-iodophenyl-3-p-nitrophenyl tetrazolium chloride, 2.8×10^-4 M phenazine methosulfate, 1.3×10^-3 M NAD, and 0.2M Tris buffer, pH 8.2. Plates were read immediately for 5 minutes at 490 nm using a Molecular Devices microplate reader.
The mean for each test article treated group was determined and compared to the mean of the control group. […]

[3] = Mus musculus, T-lymphocyte, 120 h
[4] = Mus musculus, T-lymphocyte, 72 h

Compound | IC50 [1, 3] [µM] | IC50 [2, 4] [µM] | IC50 [1] [µM] | IC50 [2] [µM]
CCCCCCCCCOCCCO[C@H]1O[C@H]([C@H](O)CN2CCCC2)[C@@H]2OC(C)(C)O[C@H]12 [Compound 3, n-Nonyloxypropyl 2,3-O-(1-methylethylidene)-6-deoxy-pyrrolidinyl-α-D-mannofuranoside] | < 1 | 3.3 | – | –
CCCCCCCCCOCCCO[C@H]1O[C@H]([C@H](O)CN2CCCCC2)[C@@H]2OC(C)(C)O[C@H]12 [Compound 4, n-Nonyloxypropyl 2,3-O-(1-methylethylidene)-6-deoxy-6-piperidinyl-α-D-mannofuranoside] | 27 | 2.7 | – | –
CCCCCCCCCOCCCO[C@H]1O[C@H]([C@H](O)CN2CCOCC2)[C@@H]2OC(C)(C)O[C@H]12 [Compound 5, n-Nonyloxypropyl 2,3-O-(1-methylethylidene)-6-deoxy-6-morpholinyl-α-D-mannofuranoside] | 19 | 17 | – | –
CCCCCCCCCOCCCO[C@H]1O[C@H]([C@H](O)CN2CCCCCC2)[C@@H]2OC(C)(C)O[C@H]12 [Compound 6, n-Nonyloxypropyl 2,3-O-(1-methylethylidene)-6-deoxy-6-hexamethyleneimino-α-D-mannofuranoside] | < 0.5 | 3.2 | – | –
CCCCCCCCCOCCCO[C@H]1O[C@H]([C@H](O)CNCCCCCCC)[C@@H]2OC(C)(C)O[C@H]12 [Compound 8, n-Nonyloxypropyl 2,3-(1-methylethylidene)-6-deoxy-6-aminoheptyl-α-D-mannofuranoside] | < 1 | 17 | – | –
CCCCCCCCCOCCCO[C@H]1O[C@H]([C@@H](C)OCCCN(C)C)[C@@H]2OC(C)(C)O[C@H]12 [Compound 10, n-Nonyloxypropyl 2,3-O-(1-methylethylidene)-6-deoxy-5-O-(N,N-dimethylaminopropyl)-α-D-mannofuranoside] | < 1 | 3 | – | –
CCCCCCCCCOCCCO[C@H]1O[C@H]([C@@H](C)OCCN2CCCC2)[C@@H]2OC(C)(C)O[C@H]12 [Compound 12, n-Nonyloxypropyl 2,3-O-(1-methylethylidene)-6-deoxy-5-O-(N'-ethylpyrrolidinyl)-α-D-mannofuranoside] | < 0.5 | 3.2 | – | –
CCCCCCCCCOCCCO[C@H]1O[C@H]([C@H](C)N2CCCC2)[C@@H]2OC(C)(C)O[C@H]12 [Compound 15, n-Nonyloxypropyl 5,6-dideoxy-2,3-O-(1-methylethylidene)-5-pyrrolidinyl-β-L-gulofuranoside] | 0.99 | 2.8 | – | –
CC1(C)O[C@@H]2[C@H](O1)[C@@H](OCCCc1ccccc1)O[C@@H]2[C@H](O)CN1CCCC1 [Compound 20, Phenylpropyl 6-deoxy 2,3-O-(1-methylethylidene)-6-pyrrolidinyl-α-D-mannofuranoside] | < 1 | 59 | – | –
CCCCCCCNC[C@@H](O)[C@H]1O[C@H](OCCCc2ccccc2)[C@H]2OC(C)(C)O[C@H]21 [Compound 21, Phenylpropyl 6-deoxy 2,3-O-(1-methylethylidene)-6-heptylamino-α-D-mannofuranoside] | < 1 | 7 | – | –
CC1(C)O[C@@H]2[C@H](O1)[C@@H](OCCCc1ccccc1)O[C@@H]2[C@H](O)CNCCCN1CCCC1 [Compound 22, Phenylpropyl 6-deoxy 2,3-O-(1-methylethylidene)-6-aminopropylpyrrolidinyl-α-D-mannofuranoside] | 0.85 | 2.5 | – | –
C[C@@H]([C@H]1O[C@H](OCCCc2ccccc2)[C@H]2OC(C)(C)O[C@H]21)N1CCCC1 [Compound 24, Phenylpropyl 5,6-dideoxy 2,3-O-(1-methylethylidene)-5-pyrrolidinyl-β-L-gulofuranoside] | < 1 | 28 | – | –
C[C@@H](OCCCN(C)C)[C@H]1O[C@H](OCCCc2ccccc2)[C@H]2OC(C)(C)O[C@H]21 [Compound 26, Phenylpropyl 6-deoxy 2,3-O-(1-methylethylidene)-5-O-3'-(N'N'-dimethylamino-n-propyl)-α-D-mannofuranoside] | < 1 | 18 | – | –
C[C@@H](OCCN1CCCC1)[C@H]1O[C@H](OCCCc2ccccc2)[C@H]2OC(C)(C)O[C@H]21 [Compound 27, Phenylpropyl 6-deoxy 2,3-O-(1-methylethylidene)-5-O-(N'-ethylpyrrolidinyl)-α-D-mannofuranoside] | 5.8 | < 3 | – | –
CC1(C)O[C@@H]2[C@H](O1)[C@@H](OCCCCN1CCCC1)O[C@@H]2[C@H](O)CO [Compound 29, 4'-(1-Pyrrolidinyl)butyl 2,3-O-(1-methylethylidene)-α-D-mannofuranoside] | 26 | 49 | – | –
n-Nonyloxypropyl 2,3-O-(1-methylethylidene)-6-deoxy-6-aminothylpyrrolidinyl-α-D-mannofuranoside [Compound 7] | – | – | 0.75 | 2.9
